Experiments:
ocular substrate [1] = assay: Subject's report on a gas permeable (hard) contact lens coated with 2–3 drops of the ophthalmic fluid; type: in vivo
Text: (§1) In use, 2–3 drops of the ophthalmic fluid of the present invention are placed onto the inside surface of the contact lens. The ophthalmic fluid is then distributed to cover fully and evenly the inside surface of the contact lens by rubbing the ophthalmic fluid into the lens with a fingertip or any other suitable applicator. It is envisaged that the ophthalmic fluid will be biologically sterile. The inside of a contact lens was coated with 2–3 drops of the ophthalmic fluid of the present invention and fitted to the subject in the conventional manner. The subject reported on the perceived ease of inserting the coated lens, the subject's sensual reaction to the coated lens and the resulting vision through the coated lens, in relation to hard and soft contact lenses.

ocular substrate [2] = assay: Subject's report on a hydrogel (soft) contact lens coated with 2–3 drops of the ophthalmic fluid; type: in vivo
Text: as §1, with “The ophthalmic fluid of the present invention is suitable for use with gas permeable (hard) contact lenses or hydrogel (soft) contact lenses. In” for “In”

Row | SMILES | subject's sensual reaction to the coated lens (comfort/irritation) (ocular substrate [1]) | tear production/expulsion and maceration (ocular substrate [1]) | vision through the coated lens (ocular substrate [1]) | sensation upon insertion / amelioration of the normal discomfort when inserting a soft lens (ocular substrate [2]) | tear production/expulsion and maceration (ocular substrate [2]) | vision through the coated lens (ocular substrate [2]) | sensation/discomfort caused by the edges of the lens on the eye (ocular substrate [1]) | time after which initially blurred vision cleared (ocular substrate [1]) | comfort once the coated lens was inserted (ocular substrate [2]) | time after which initially blurred vision cleared (ocular substrate [2]) [min]
1 | CCCCC/C=C\C/C=C\C/C=C\C/C=C\CCCC(=O)OCC(COC(=O)CCC/C=C\C/C=C\C/C=C\C/C=C\CCCCC)OC(=O)CCC/C=C\C/C=C\C/C=C\C/C=C\CCCCC [triarachidonin, 1,2,3-tri(cis, cis, cis, cis, −5,8,11,14-eicosatetraenoyl)glycerol] | comfortable to wear | did not experience tear production or maceration | excessively and persistently blurred | did not produce any noticeable improvement in the wearer's comfort | increased tear production upon insertion of the soft lens, but no maceration | clear vision | – | – | – | –
2 | CCCCC/C=C\C/C=C\CCCCCCCC(=O)OCC(COC(=O)CCCCCCC/C=C\C/C=C\CCCCC)OC(=O)CCCCCCC/C=C\C/C=C\CCCCC [trilinolein, 1,2,3-tri(cis, cis-9,12octadecadienoyl)glycerol] | could not feel the presence of the coated lens | no tear expulsion | initially experienced blurred vision | noticeable amelioration of the normal discomfort | no tear expulsion | immediately clear | not reduced to the same extent | approximately 60 seconds | could not feel the presence of the coated lens | –
3 | CC/C=C\C/C=C\C/C=C\CCCCCCCC(=O)OCC(COC(=O)CCCCCCC/C=C\C/C=C\C/C=C\CC)OC(=O)CCCCCCC/C=C\C/C=C\C/C=C\CC [trilinolenin, 1,2,3-tri(cis, cis, cis −9,12,15-octadecatrienoyl)glycerol] | extreme irritation | increased tear production and maceration of the ocular substrate | blurred | – | – | initially experienced blurred vision | – | – | comfortable to wear | 2
4 | CCCCCC/C=C\CCCCCCCC(=O)OCC(COC(=O)CCCCCCC/C=C\CCCCCC)OC(=O)CCCCCCC/C=C\CCCCCC [tripalmitolein, 1,2,3-tri(cis-9-hexadecenoyl)glycerol] | could not feel the presence of the coated lens | – | excessively blurred | – | – | blurred | not reduced to the same extent | – | comfortable | –

— patent US7115667B2, “Ophthalmic fluid” (Planned Products Pty Ltd., priority 1999, dated 2006)
